Reference: patent US20210346392A1, “PHARMACEUTICAL COMPOSITION FOR ORAL ADMINISTRATION” (ASTELLAS PHARMA INC., priority 2018, published 2021)
≈ marks a conversion by molar mass, not a printed value. Where two headings read alike, the source gives them in different places.

Legend:
[1] = Storage stability: total amount of related substances by HPLC (Experimental Example 1); type: physicochemical; conditions: stored at 40° C., 75% RH for 1 month, glass bottle, covered
Excerpt: The storage stability as used herein can be evaluated by measuring the change in the amount of related substances derived from compound A when the pharmaceutical composition for oral administration is stored under certain storage conditions. For example, after the pharmaceutical composition for oral administration is stored under certain conditions, the total amount of related substances of compound A contained in the pharmaceutical composition for oral administration, or a specific related substance of compound A is measured. […] The percentage (%) of the total peak area of related substances with respect to the sum of all peak areas including the peak area of compound A are calculated, and is compared with the value before storage to calculate the amount of change (the amount of increase)(%). Alternatively, as shown in Experimental Example 3 described below, the percentage (%) of the peak area of related substance A with respect to the sum of all peak areas obtained in the same manner is calculated, and it is also possible to evaluate the storage stability by the change over time of related substance A.
The physical mixtures obtained in Example 1 and Comparative Example 1 were placed in glass bottles, covered, and stored at 40° C., 75% RH for 1 month, and the total amount of related substances before and after storage was measured by the method described below. […]

[2] = Solubility of compound A in Japanese Pharmacopoeia dissolution test fluids; type: physicochemical; conditions: for solubility: Seventeenth Edition
Excerpt: When compound A was formulated, the solubility of compound A was confirmed based on a Dissolution Test of the Japanese Pharmacopoeia, Seventeenth Edition, and there was a large difference between an acidic pH range and a neutral pH range.

Increased amount of total related substances (%) (n = 2) [1]: 0.00%
Increased amount of total related substances (%) (n = 2) ([1]; listed as compound A): did not increase
difference of solubility between acidic and neutral pH range ([2]; first fluid vs second fluid): approximately 30 times
solubility ([2]; pH 1.2, simulated gastric fluid, first fluid for a Dissolution Test of the Japanese Pharmacopoeia, read-out: solubility in an acidic pH range): ~0.041 mg/mL (≈ 101 µM)
solubility ([2]; pH 6.8, aqueous buffer, second fluid for a Dissolution Test of the Japanese Pharmacopoeia, read-out: solubility at a neutral pH range): ~0.0012 mg/mL (≈ 2.94 µM)
SMILES: Cc1nc(CN2CCS(=O)(=O)CC2)c2cc(C3CCC(C)(C)CC3)sc2n1 [Compound A, 6-(4,4-Dimethylcyclohexyl)-4-[(1,1-dioxo-1λ^6-thiomorpholin-4-yl)methyl]-2-methylthieno[2,3-d]pyrimidine]
